Assay results: patent publication US10350271B2, “Lipidated peptides for lowering blood glucose” (USTAV ORGANICKE CHEMIE A BIOCHEMIE AKADEMIE VED CR, V.V.I., priority 2014, dated 2019)
Numbered stars: 1 amine (or outer) side, 2 acyl side, 3 side chain; on linkers, the order of the positions; unused ones are H or OH. Side chains are listed from the residue outwards. Peptide text beside a SMILES is read from it. * marks the point of attachment. TTDA(Palmitoyl) = CCCCCCCCCCCCCCCC(=O)NCCCOCCOCCOCCCN*; γGlu = O=C(O)[C@H](CCC(=O)[*:2])N[*:1]; Palmitoyl = CCCCCCCCCCCCCCCC(=O)*; Suc = O=C(CCC(=O)[*:2])[*:1]

Assays:
C57BL/6 mice = assay: Food intake in fasted mice after SC injection; format: in vivo; details: 5 mg/kg SC, 45 min after injection
How it was run: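 Saline, PrRP or a lipidated analog was injected SC (1-10 mg/kg) after a 17 h fast with free water, animals housed singly.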

rat PrRP receptor = target: T1, rat PrRP receptor (Rattus norvegicus, UniProt Q64121); assay: Competitive binding in RC-4B/C rat pituitary cells (125I-rat PrRP31); details: for % of PrRP31, RC-4B/C rat pituitary cells: affinity relative to PrRP31
T1 construct: host or cells: RC-4B/C rat pituitary cell line
T1 sequence (Q64121 1-370): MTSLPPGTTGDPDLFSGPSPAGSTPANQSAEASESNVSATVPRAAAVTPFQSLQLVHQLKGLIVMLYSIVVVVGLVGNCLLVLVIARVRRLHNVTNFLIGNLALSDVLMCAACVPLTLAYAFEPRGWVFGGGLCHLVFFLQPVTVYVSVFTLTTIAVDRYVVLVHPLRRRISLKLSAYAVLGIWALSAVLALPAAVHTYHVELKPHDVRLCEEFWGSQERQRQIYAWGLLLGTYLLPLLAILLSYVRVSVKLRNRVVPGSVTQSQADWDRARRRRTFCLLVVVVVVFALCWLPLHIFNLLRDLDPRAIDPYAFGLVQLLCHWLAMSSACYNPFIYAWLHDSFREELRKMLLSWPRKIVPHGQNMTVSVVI
How it was run: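 Displacement of rat 125I-PrRP31 ([…]) by test analogs, 10^−11–10^−4 mol·l^−1, on whole RC-4B/C cells, 60 min RT. Bound counts measured by γ-counter in duplicate, ≥3 repeats, analyzed by nonlinear one-site binding regression.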

[1] = target: T2, human PrRP receptor GPR10 (Homo sapiens, UniProt P49683); assay: Competitive binding in CHO cells transfected with human GPR10 (human 125I-PrRP31); details: for % of PrRP31, GPR10 human receptor transfected in CHO cells: affinity relative to PrRP31; for Ki: CHO cells, human 125I-PrRP31, read-out: Ki, GPR10 human receptor transfected in CHO cells
T2 construct: host or cells: CHO cells
T2 sequence (P49683 1-370): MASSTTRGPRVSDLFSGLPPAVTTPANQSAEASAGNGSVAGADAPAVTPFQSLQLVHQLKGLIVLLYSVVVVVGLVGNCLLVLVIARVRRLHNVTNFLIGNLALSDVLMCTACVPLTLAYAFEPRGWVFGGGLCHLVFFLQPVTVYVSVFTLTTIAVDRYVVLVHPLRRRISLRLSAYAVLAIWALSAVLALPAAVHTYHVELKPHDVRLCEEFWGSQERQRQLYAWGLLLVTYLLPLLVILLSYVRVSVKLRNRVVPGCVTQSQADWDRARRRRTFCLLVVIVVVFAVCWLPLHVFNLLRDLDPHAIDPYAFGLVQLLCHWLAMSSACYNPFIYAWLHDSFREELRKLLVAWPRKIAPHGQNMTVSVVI
How it was run: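 Values from one-site nonlinear regression of displacement curves: analogs (final 10^-11 to 10^-4 mol·l^-1) competed with 125I-PrRP31 (final 5×10^-11 mol·l^-1) on adherent human GPR10 CHO cells. Binding ran 1 h at room temperature, pH 7.4 buffer with NaCl, MgCl2, CaCl2, glucose, BSA; cell-bound radioactivity counted after NaOH lysis.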

Wistar rats = assay: Food intake in fasted rats after SC injection; format: in vivo; details: overnight fasted rats, compared to controls given vehicle
Protocol: NMRI mice, C57BL/6 mice, and Wistar rats (AnLab, Prague, Czech Republic) were housed in a temperature of 23° C. and a daily cycle of 12 h light and dark (light from 6:00). They were given ad libitum water and a standard chow diet that contained 25, 9 and 66% of calories of protein, fat and carbohydrate respectively. Energy content of the feed was 3.4 kcal/g (St-1, Mlýn Kocanda, Czech Republic). Db/db mice and their controls (C57BL/6 background) were obtained from Taconic (Denmark), housed under the same conditions as described above, and fed by Altromin (Taconic, Denmark). ZDF-Lepr^fa/Crl, diabetic fa/fa male rats were obtained from Charles River (France), housed under same conditions as described above, and fed with a Purina 5008 diet (IPS Product Supplies Limited, UK). All experiments followed the ethical guidelines for animal experiments and the law of the Czech Republic Nr. 246/1992.
In experiments with C57BL/6 mice or Wistar rats, food intake was measured with overnight fasted animals in individual cages. Food was withdrawn 17 hours prior to injection of lipidated analog of prolactin releasing peptide (PrRP); free access to water was maintained. The administration of either saline, PrRP, or lipidated analogs was performed by SC injection at doses of 1-10 mg/kg (which corresponded to a volume of 0.2 ml/mouse and 0.1 ml/100 g weight of rat). Fifteen minutes after the lipidated analog of prolactin releasing peptide (PrRP) administration, the mice were given pre-weighed food. The food was then weighed every 30 minutes for 5-10 hours. The administration of each dose was performed at least twice, and each group of mice consisted of at least 6 mice.

Row | Ki (rat PrRP receptor; RC-4B/C cells, displacement of 125I-rat PrRP31, read-out: Ki, RC-4B/C rat pituitary cells ^25I-rat PrRP31) [nM] | % of PrRP31, RC-4B/C rat pituitary cells (rat PrRP receptor) [%] | % of PrRP31, GPR10 human receptor transfected in CHO cells [1] [%] | Ki [1] [nM] | SMILES | Food intake in mice % of saline-treated group (C57BL/6 mice) [%] | Food intake in rats (Wistar rats)
1 | 0.5 ± 0.13 | 119 | 57 | – | CCCCCCCCCCCCCCCC(=O)N[C@@H](CCC(=O)N[C@@H](CO)C(=O)N[C@@H](CCCNC(=N)N)C(=O)N[C@H](C(=O)N[C@@H](Cc1c[nH]cn1)C(=O)N[C@@H](CCCNC(=N)N)C(=O)N[C@@H](Cc1c[nH]cn1)C(=O)N[C@@H](CO)C(=O)N[C@@H](CCSC)C(=O)N[C@@H](CCC(=O)O)C(=O)N[C@H](C(=O)N[C@@H](CCCNC(=N)N)C(=O)N[C@H](C(=O)N1CCC[C@H]1C(=O)N[C@@H](CC(=O)O)C(=O)N[C@H](C(=O)N[C@@H](CC(N)=O)C(=O)N1CCC[C@H]1C(=O)N[C@@H](C)C(=O)N[C@@H](Cc1c[nH]c2ccccc12)C(=O)N[C@@H](Cc1ccc(O)cc1)C(=O)N[C@@H](C)C(=O)N[C@@H](CO)C(=O)N[C@@H](CCCNC(=N)N)C(=O)NCC(=O)N[C@H](C(=O)N[C@@H](CCCNC(=N)N)C(=O)N1CCC[C@H]1C(=O)N[C@H](C(=O)NCC(=O)N[C@@H](CCCNC(=N)N)C(=O)N[C@@H](Cc1ccccc1)C(N)=O)C(C)C)[C@@H](C)CC)[C@@H](C)CC)[C@@H](C)O)[C@@H](C)CC)[C@@H](C)O)C(=O)O [Analog 54] | 14 | significantly reduced
2 | – | 236 | 83 | 4.72 ± 0.35 | CCCCCCCCCCCCCCCC(=O)N[C@@H](CCC(=O)NCCCC[C@H](NC(=O)[C@@H](NC(=O)[C@H](CCC(=O)O)NC(=O)[C@H](CCSC)NC(=O)[C@H](CO)NC(=O)[C@H](Cc1c[nH]cn1)NC(=O)[C@H](CCCNC(=N)N)NC(=O)[C@H](Cc1c[nH]cn1)NC(=O)[C@@H](NC(=O)[C@H](CCC(=O)O)NC(=O)[C@@H](N)CO)[C@@H](C)O)[C@@H](C)CC)C(=O)N[C@H](C(=O)N1CCC[C@H]1C(=O)N[C@@H](CC(=O)O)C(=O)N[C@H](C(=O)N[C@@H](CC(N)=O)C(=O)N1CCC[C@H]1C(=O)N[C@@H](C)C(=O)N[C@@H](Cc1c[nH]c2ccccc12)C(=O)N[C@@H](Cc1ccc(O)cc1)C(=O)N[C@@H](C)C(=O)N[C@@H](CO)C(=O)N[C@@H](CCCNC(=N)N)C(=O)NCC(=O)N[C@H](C(=O)N[C@@H](CCCNC(=N)N)C(=O)N1CCC[C@H]1C(=O)N[C@H](C(=O)NCC(=O)N[C@@H](CCCNC(=N)N)C(=O)N[C@@H](Cc1ccccc1)C(N)=O)C(C)C)[C@@H](C)CC)[C@@H](C)CC)[C@@H](C)O)C(=O)O [Analog 55] (H-SETHRHSMEIK([γGlu-Palmitoyl])TPDINPAWYASRGIRPVGRF-NH2) | 12 | significantly reduced
3 | – | 663 | 103 | 3.79 ± 0.46 | CCCCCCCCCCCCCCCC(=O)NCCCOCCOCCOCCCNC(=O)CCC(=O)NCCCC[C@H](NC(=O)[C@@H](NC(=O)[C@H](CCC(=O)O)NC(=O)[C@H](CCSC)NC(=O)[C@H](CO)NC(=O)[C@H](Cc1c[nH]cn1)NC(=O)[C@H](CCCNC(=N)N)NC(=O)[C@H](Cc1c[nH]cn1)NC(=O)[C@@H](NC(=O)[C@H](CCCNC(=N)N)NC(=O)[C@@H](N)CO)[C@@H](C)O)[C@@H](C)CC)C(=O)N[C@H](C(=O)N1CCC[C@H]1C(=O)N[C@@H](CC(=O)O)C(=O)N[C@H](C(=O)N[C@@H](CC(N)=O)C(=O)N1CCC[C@H]1C(=O)N[C@@H](C)C(=O)N[C@@H](Cc1c[nH]c2ccccc12)C(=O)N[C@@H](Cc1ccc(O)cc1)C(=O)N[C@@H](C)C(=O)N[C@@H](CO)C(=O)N[C@@H](CCCNC(=N)N)C(=O)NCC(=O)N[C@H](C(=O)N[C@@H](CCCNC(=N)N)C(=O)N1CCC[C@H]1C(=O)N[C@H](C(=O)NCC(=O)N[C@@H](CCCNC(=N)N)C(=O)N[C@@H](Cc1ccccc1)C(N)=O)C(C)C)[C@@H](C)CC)[C@@H](C)CC)[C@@H](C)O [Analog 57] (H-SRTHRHSMEIK([Suc-TTDA(Palmitoyl)])TPDINPAWYASRGIRPVGRF-NH2; N-terminus assumed) | 10 | significantly reduced
